Experimental findings from patent US9492485B2, “Pluripotent stem cell-derived brown adipocytes, pluripotent stem cell-derived cell aggregate, method for producing same, and cell therapy and medical therapy therefor” (ID Pharma Co., Ltd., priority 2011, dated 2016) are described below.

In test [1] the test system is white adipocytes produced from human mesenchymal stem cells (MSCs). Put plainly: Oxygen consumption (OCR) with XF96 Extracellular Flux Analyzer. The class given is cell-based. The settings on record: CL316,243 100 nM or isoproterenol 100 μM, 4 hours (FIG. 12C).
The test system of test [2] is undifferentiated human iPS cells. The test is described as above. The note with it: CL316,243 100 nM or isoproterenol 100 μM, 4 hours (FIG. 12B left). The test is classed as cell-based.
In test [3] the test system is brown adipocytes derived from human iPS cells. The test is described as above. The class given is cell-based. The note with it: CL316,243 100 nM or isoproterenol 100 μM, 4 hours (FIG. 12B right). Here is the method: (§1) Brown adipocytes were differentiated from KhES-3 and SeV-iPS cell lines in accordance with the method described in Example 5. Here, the adhesion culture in the step (B) for differentiation induction was carried out using a 96-well plate for exclusive use in XF96 Extracellular Flux Analyzer (Seahorse Bioscience Inc., Billerica, Mass.) after coating with 0.1% gelatin. The cell aggregates were seeded at an amount of 30 cell aggregates per well. The cell aggregates seeded in the 96-well plate were incubated in a 5% CO2 incubator at 37° C. for 2 days. Subsequently, isoproterenol (100 μM) or CL316,243 (100 nM) was added to a half of the wells, and incubation was further carried out in a 5% CO2 incubator at 37° C. for 4 hours, followed by measurement of oxygen consumption (OCR) per minute with XF96 Extracellular Flux Analyzer (Seahorse Bioscience Inc., Billerica, Mass.).

The test system of test [4] is brown adipocytes derived from human ES cells. Described as above. The class given is cell-based. The settings on record: CL316,243 100 nM or isoproterenol 100 μM, 4 hours (FIG. 12A right). Here is the method:
as §1

The subject of test [5] is undifferentiated human ES cells. The description is as above. The test is classed as cell-based. The note with it: CL316,243 100 nM or isoproterenol 100 μM, 4 hours (FIG. 12A left).
The test system of test [6] is human ES cell-derived brown adipocytes. Kind of test: Influence of brown adipocyte stimulant on hematopoietic cytokine expression levels. The test is classed as cell-based. The settings on record: treatment with isoproterenol (FIG. 16E).
Test [7] deals with brown adipocytes produced from KhES-3 cell line and SeV-iPS cell line. Put plainly: RT-PCR of PRDM16 and UCP1 gene expression after addition of adrenaline receptor agonist. The class given is cell-based, human. The settings on record: 100 μM, 4 hours, RT-PCR (FIG. 10). As for the experimental part: Brown adipocytes were produced from KhES-3 cell line and SeV-iPS cell line in accordance with the method described in Example 5 and were reacted with 100 μM of an adrenaline receptor agonist, isoproterenol, for 4 hours. In order to evaluate the activation of the brown adipocytes by the addition of the adrenaline receptor agonist, the expressions of the PRDM16 and UCP1 genes were investigated by RT-PCR.

Test [8] has as its system 10-week old mice (male, ICR strain). Kind of test: Relief of 5-fluorouracil-induced myelosuppression in mice, bone marrow cell count. The class given is in vivo, mouse. The settings on record: 5-FU 100 mg/kg; isoproterenol 30 μmol/kg on 3 to 6 days after; vs saline; P=0.032 (FIG. 16F). Here is the method: Furthermore, whether or not a brown adipocyte stimulant has an effect of relieving a severe side effect of anticancer drug administration, myelosuppression, was investigated. Specifically, an anticancer drug, 5-fluorouracil (5-FU), was administered to 10-week old mice (male, ICR strain) at a dose of 100 mg/kg. Isoproterenol (30 μmol/kg) or saline was administered to the mice on 3 to 6 days after the administration, and bone marrow cells were collected from the thighbone over time and were counted.

Each structure is given as a SMILES string.

Consider `C[C@H](Cc1ccc2c(c1)OC(C(=O)[O-])(C(=O)[O-])O2)NC[C@H](O)c1cccc(Cl)c1.[Na+].[Na+]` [CL316,243], for which the OCR value entry in test [1] is “no change”; in test [2] it was “no change”; in test [3], “significant increase”; in test [4], “significant increase”; in test [5] it was “no change”.

For the compound `CC(C)NCC(O)c1ccc(O)c(O)c1` (stereo not drawn) [isoproterenol], in test [6], the “expression levels of cytokines (TPO, IL6, IL3, G-CSF, GM-CSF, EPO)” value is reported as “increased”. Also, in test [7], the “expression of the PRDM16 gene” value was “increase” and the “expression of the UCP1 gene” value is “increase”. In addition, the “number of bone marrow cells on the 7th day from the 5-FU administration” value in test [8] was “significantly increased”.
